Experimental findings from ChEMBL document CHEMBL4229553, “Design, synthesis and in vitro study of densely functionalized oxindoles as potent α-glucosidase inhibitors” (Bioorg Med Chem, 2018) are described below.

One data set deals with yeast alpha-glucosidase. The data set is described as follows: Ratio of IC50 for BHK21 cells to IC50 for yeast alpha-glucosidase. The data set is classed as toxicity. To be noted: hamster, read-out: Ratio IC50.
The test system of another data set is BHK-21. The data set is described as follows: Cytotoxicity against BHK21 cells. In kind it is cell-based, Mesocricetus auratus. The following applies: hamster.
Data set [1] in a line: Inhibition of yeast alpha-glucosidase using 4-nitrophenyl-alpha-D-glucopyranoside as substrate incubated for 15 mins by spectrophotometric method. Also noted: species or system Saccharomyces cerevisiae.
Another data set deals with Alpha glucosidase (Homo sapiens, UniProt O43451+P10253+P14410+Q2M2H8). The data set is described as follows: Inhibition of alpha-glucosidase (unknown origin). In kind it is protein assay.
Data set [2] relates to Saccharomyces cerevisiae. The data set is described as follows: Competitive inhibition of yeast alpha-glucosidase assessed as apparent Km for substrate at 8 uM using p-nitrophenyl-alpha-D-glucopyranoside as substrate incubated for 30 mins by Lineweaver-Burk plot method.
Data set [3] concerns Saccharomyces cerevisiae. The data set is described as follows: Competitive inhibition of yeast alpha-glucosidase assessed as apparent Km for substrate at 2 uM using p-nitrophenyl-alpha-D-glucopyranoside as substrate incubated for 30 mins by Lineweaver-Burk plot method.
For data set [4], the system named is Saccharomyces cerevisiae. The data set is described as follows: Competitive inhibition of yeast alpha-glucosidase assessed as apparent Km for substrate at 10 uM using p-nitrophenyl-alpha-D-glucopyranoside as substrate incubated for 30 mins by Lineweaver-Burk plot method.
Data set [5] relates to Saccharomyces cerevisiae. The data set is described as follows: Competitive inhibition of yeast alpha-glucosidase assessed as apparent Km for substrate at 4 uM using p-nitrophenyl-alpha-D-glucopyranoside as substrate incubated for 30 mins by Lineweaver-Burk plot method.
Data set [6] concerns Saccharomyces cerevisiae. The data set is described as follows: Competitive inhibition of yeast alpha-glucosidase assessed as Vmax for substrate at 10 uM using p-nitrophenyl-alpha-D-glucopyranoside as substrate incubated for 30 mins by Lineweaver-Burk plot method.
The subject of data set [7] is Saccharomyces cerevisiae. The data set is described as follows: Competitive inhibition of yeast alpha-glucosidase assessed as Vmax for substrate at 8 uM using p-nitrophenyl-alpha-D-glucopyranoside as substrate incubated for 30 mins by Lineweaver-Burk plot method.
In data set [8] the test system is Saccharomyces cerevisiae. The data set is described as follows: Competitive inhibition of yeast alpha-glucosidase assessed as Vmax for substrate at 6 uM using p-nitrophenyl-alpha-D-glucopyranoside as substrate incubated for 30 mins by Lineweaver-Burk plot method.
Data set [9] relates to Saccharomyces cerevisiae. The data set is described as follows: Competitive inhibition of yeast alpha-glucosidase assessed as Vmax for substrate at 4 uM using p-nitrophenyl-alpha-D-glucopyranoside as substrate incubated for 30 mins by Lineweaver-Burk plot method.
Data set [10] concerns Saccharomyces cerevisiae. The data set is described as follows: Competitive inhibition of yeast alpha-glucosidase assessed as Vmax for substrate at 2 uM using p-nitrophenyl-alpha-D-glucopyranoside as substrate incubated for 30 mins by Lineweaver-Burk plot method.
Data set [11] deals with Saccharomyces cerevisiae. The data set is described as follows: Competitive inhibition of yeast alpha-glucosidase assessed as apparent Km for substrate at 6 uM using p-nitrophenyl-alpha-D-glucopyranoside as substrate incubated for 30 mins by Lineweaver-Burk plot method.
Data set [12] is described as follows: Inhibition of yeast alpha-glucosidase using nitrophenol-D-glucopyranoside as substrate incubated for 15 mins. On the set-up: species or system Saccharomyces cerevisiae.

The structures appear in SMILES notation.

Regarding `Cc1cc(C(=O)C2C(=O)Nc3ccccc32)c(C(=O)N2CCCC2)c(=O)[nH]1` (stereo not given), the selectivity ratio with yeast alpha-glucosidase is 100. Further, the Activity entry in the data set with BHK-21 was “Non-Toxic”. Besides, the IC50 in [1] was 2.61 µM.
In the case of `Cc1cc(C(=O)C2C(=O)N(Cc3ccccc3)c3ccc(F)cc32)c(C(=O)N2CCCCC2)c(=O)[nH]1` (stereo not given), in data set [1], the 50% inhibitory concentration (IC50) was determined as 8.21 µM.
As to `Cc1cc2c(c(=O)[nH]1)C(=O)O/C2=C1\C(=O)Nc2ccc(Br)cc21`, in data set [1], the IC50 was found to be 33 µM.
In turn, `Cc1cc(C(=O)C2C(=O)N(C)c3ccccc32)c(C(=O)N2CCCCC2)c(=O)[nH]1` (stereo not given) came in with an IC50 in data set [1] of 10.2 µM.
For the compound `Cc1cc(C(=O)C2C(=O)N(Cc3ccccc3)c3ccc(Br)cc32)c(C(=O)N2CCCCC2)c(=O)[nH]1` (stereo not given), in the data set with yeast alpha-glucosidase, the selectivity ratio was 100. Further, in the data set with BHK-21, the Activity entry is “Non-Toxic”. In data set [1], this compound displayed an IC50 of 2.21 µM.
On Alpha glucosidase, `Nc1ccn(C2OC(CO)[C@@H](O)[C@H]2O)c(=O)n1` (stereo not given in full) yielded an IC50 of 2.5 µM.
Consider `Cc1cc(/C(O)=C2/C(=O)Nc3ccc(Br)cc32)c(C(=O)N2CCCCC2)c(=O)[nH]1`, for which, in the data set on yeast alpha-glucosidase, the selectivity ratio worked out at 100. For the same compound, the Activity result in the data set on BHK-21 is given as “Non-Toxic”. The same compound returned an IC50 in data set [1] of 2.03 µM.
Turning to `Cc1cc(C(=O)C2C(=O)Nc3ccccc32)c(C(=O)N2CCCCC2)c(=O)[nH]1` (stereo not given), in the data set with yeast alpha-glucosidase, the selectivity ratio stood at 100. Also, in the data set with BHK-21, the Activity entry was “Non-Toxic”. The IC50 in [1] was determined as 2.67 µM.
Regarding `Cc1cc(C(=O)C2C(=O)N(Cc3ccccc3)c3ccccc32)c(C(=O)N2CCCCC2)c(=O)[nH]1` (stereo not given), the IC50 in [1] worked out at 3.01 µM.
On the same count and under the same terms, in the case of `Cc1cc2c(c(=O)[nH]1)C(=O)OC2C1(O)C(=O)N(C)c2ccc(Br)cc21` (stereo not given) it was 36.1 µM; in that of `Cc1cc(C(=O)C2C(=O)Nc3ccc([N+](=O)[O-])cc32)c(C(=O)N2CCCCC2)c(=O)[nH]1` (stereo not given), 4.56 µM.
Turning to `Cc1cc(C(=O)C2C(=O)Nc3ccc(F)cc32)c(C(=O)N2CCCCC2)c(=O)[nH]1` (stereo not given), the Michaelis constant (Km) in the data set on Saccharomyces cerevisiae [2] worked out at 2.54 µM; in the data set with Saccharomyces cerevisiae [3], 1.64 µM; with Saccharomyces cerevisiae [4], 2.92 µM; with Saccharomyces cerevisiae [5], 1.79 µM; with Saccharomyces cerevisiae [11], 1.8 µM. In addition, the selectivity ratio in the data set with yeast alpha-glucosidase was 100. The maximal velocity (Vmax) was found to be 40 µM/min in the data set on Saccharomyces cerevisiae [6]; 41.6 µM/min with Saccharomyces cerevisiae [7]; 40 µM/min with Saccharomyces cerevisiae [8]; 40 µM/min with Saccharomyces cerevisiae [9]; 41.6 µM/min in the data set with Saccharomyces cerevisiae [10]. The Activity entry in the data set on BHK-21 is recorded as “Non-Toxic”. In addition, the concentration for half-maximal inhibition (IC50) in [1] was 0.646 µM.
On Alpha glucosidase, `CCC1NC(CC)C(O)C(O)C1O` (stereo not given) returned a half-inhibitory concentration (IC50) of 10 µM.
In data set [1], `Cc1cc(C(=O)C2C(=O)N(C)c3ccc(F)cc32)c(C(=O)N2CCCCC2)c(=O)[nH]1` (stereo not given) had an IC50 of 10 µM.
Compound `Cc1cc2c(c(=O)[nH]1)C(=O)OC2C1(O)C(=O)N(C)c2ccccc21` (stereo not given) yielded an IC50 in data set [1] of 27.6 µM.
As for `Cc1cc(/C(O)=C2/C(=O)N(C)c3ccc(Br)cc32)c(C(=O)N2CCCCC2)c(=O)[nH]1`, the concentration for half-maximal inhibition (IC50) in data set [1] stood at 6.41 µM.
As for `Cc1cc2c(c(=O)[nH]1)C(=O)O/C2=C/c1cc(Br)cs1`, the IC50 in [12] was 0.24 µM.
With `Cc1cc2c(c(=O)[nH]1)C(=O)OC2C1(O)C(=O)N(Cc2ccccc2)c2ccc(Br)cc21` (stereo not given), the IC50 in data set [1] is 42.5 µM.
Still for that read-out and setting: in the case of `Cc1cc2c(c(=O)[nH]1)C(=O)O/C2=C1\C(=O)Nc2ccccc21` it was 47.2 µM; in that of `C[C@H]1O[C@H](O[C@H]2[C@H](O)[C@@H](O)[C@@H](O[C@H]3[C@H](O)[C@@H](O)C(O)O[C@@H]3CO)O[C@@H]2CO)[C@H](O)[C@@H](O)[C@@H]1N[C@H]1C=C(CO)[C@@H](O)[C@H](O)[C@H]1O` (stereo not given in full) [ACARBOSE], 4.02 µM.

As a reminder, the IC50 is the concentration that inhibits the measured activity by half. A higher IC50 goes with lower potency. The Km is the substrate concentration at which the rate is half of its maximum. In general, Vmax refers to the top rate of the reaction or transport when substrate is in excess.
